{"source": "patent US20040266811A1", "about": "“Methods for inducing regeneration, remyelination, and hypermyelination of nervous tissue” (priority 2002, published 2004)", "key": {"[1]": {"target": "T1, full-length FKBP52 (GST fusion protein) (Homo sapiens, UniProt Q02790)", "T1 construct": "GST-FKBP52 was constructed by PCR amplification of full-length FKBP52 from the pcDNA3 vector; made in house; host or cells: bacteria", "T1 sequence (Q02790 1-459)": "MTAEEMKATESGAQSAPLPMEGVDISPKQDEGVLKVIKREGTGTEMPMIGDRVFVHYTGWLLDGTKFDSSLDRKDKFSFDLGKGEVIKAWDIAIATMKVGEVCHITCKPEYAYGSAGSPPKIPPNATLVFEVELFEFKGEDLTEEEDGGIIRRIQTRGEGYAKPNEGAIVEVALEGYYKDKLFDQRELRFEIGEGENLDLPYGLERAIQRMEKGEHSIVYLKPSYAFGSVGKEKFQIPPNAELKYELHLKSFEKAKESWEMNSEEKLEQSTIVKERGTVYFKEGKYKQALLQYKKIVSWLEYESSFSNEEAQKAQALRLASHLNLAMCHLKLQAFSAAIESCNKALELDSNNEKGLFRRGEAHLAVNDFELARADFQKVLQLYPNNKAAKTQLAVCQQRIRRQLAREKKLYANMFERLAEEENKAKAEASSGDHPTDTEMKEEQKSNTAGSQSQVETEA", "assay": "3H-FK506 competition assay on bead-immobilized GST-FKBP52", "type": "binding", "settings": "10 nM FK506 with 3H-dihydro-FK506, 200-fold molar excess of cold ligand", "procedure": "There was virtually no binding of GST alone to FKBP52 (not shown). […] Full-length FKBP52 was expressed as a GST fusion protein, purified over GSH-Sepharose resin. […] After extensive washing, the bound fraction (gray bars) was determined by liquid scintillation counting. […] Values are averages (with standard deviations) of three independent experiments.\nCompetition of […] binding to FKBP52 was carried out on GSH Sepharose beads from GST-FKBP52 expressed in bacteria. Briefly, GST-FKBP52 was constructed by PCR amplification of full-length FKBP52 from the pcDNA3 vector (Invitrogen, Carlsbad, Calif.), with FKBP52-specific primers flanked by EcORI/BamH1 restriction endonuclease sites. A 1.4-kb fragment was subsequently ligated into EcORI/BamH1, and digested with CIP-treated pGEX-6p to obtain a GST-fusion protein. The correct reading frame was verified by DNA sequencing. GST-FKBP52 fusion proteins were generated upon induction with 0.1 mM IPTG (from a 500-ml culture), and bacterial lysates were incubated with GSH Sepharose beads (Pharmacia, Peapack, N.J.) to collect FKBP52. Following several washes, first in bacterial lysis buffer and subsequently in PBS, the FKBP52 was over 90% pure, and was used for in vitro competition studies."}, "[2]": {"test_system": "DRG explants", "assay": "Neurite outgrowth from DRG explants", "type": "cell-based, C57B1/6 mice", "settings": "1 μM GM-284, 96 h", "procedure": "(A) DRGs were explanted and cultured alone, (panel i), in the presence of 100 ng/ml NGF (panel ii) or in the presence of 1 μM GM-284 (panel iii), for 96 h. At the end of the culture period, the tissue was fixed and stained for expression of neuron-specific β-III tubulin. […] (B) Both Schwann cells and neurons are present in DRG explants. To determine if the neuritogenic effects of GM-284 are direct, acting on neurons, or indirect, acting through Schwann cells, sensory neurons from E18 mice were isolated and treated with either NGF (left panel) or GM-284 (right panel) for 6 days.\nExplanted DRG ganglia were dissected from P1 to P3 C57B1/6 mice, as previously described (Weinstein et al., Targeted expression of an oncogenic adaptor protein v-Crk potentiates axonal growth in dorsal root ganglia and motor neurons in vivo. Brain Res. Dev. Brain Res., 116:29-39, 1999). Briefly, DRGs were dissected and placed in ice-cold PBS containing 2% glucose, then transferred onto polyornithine/laminin-coated tissue culture plates (Biocoat, Becton Dickinson Laboratories) in DMEM-plating medium overnight. […] Cultures were kept at 37° C., in 5% CO2, for up to 1 week, at which time the extent of well-defined neurite outgrowth was assessed."}, "[3]": {"test_system": "Erk phosphorylation in DRG neurons", "assay": "Erk phosphorylation immunoblot in DRGs", "type": "cell-based, mice", "settings": "1 μM GM-284, 30 min or 4 h", "procedure": "(A) DRGs were prepared and cultured as above, except that either the MEK1 inhibitor, PD 098059, or NGF-neutralizing antibodies were included in cultures treated with either NGF or GM-284. Maximal response was determined to be the extent of neurite outgrowth when DRGs were cultured in NGF alone (spotted bars) or in 1 μM GM-284 (striped bars). As indicated, DRGs were treated with either NGF or GM-284, in the presence of either 0.25 mg/ml anti-NGF neutralizing antibodies or PD 098059. […] DRGs were treated with 100 ng/ml NGF or 1 μM GM-284, for 30 min or 4 h, as indicated, and the detergent lysates were prepared and immunoblotted with anti-phospho-Erk monoclonal antibody. The p42 and p44 bands are indicated by arrowheads.\n293T cells were lysed in ice-cold HNTG buffer (20 mM HEPES, pH 7.5; 150 mM NaCl; 10% glycerol; and 1% Triton X-100) containing 0.1 mM sodium molybdate, 1 mM sodium vanadate, 1 mM phenylmethylsulfonyl fluoride (PMSF), and 10 μg/ml aprotinin. After 10 min at 4° C., cleared lysates were subjected to SDS-PAGE and Western blot analysis using standard protocols. Blots were incubated with the indicated primary antibodies and the appropriate […] secondary antibodies, followed by detection using enhanced chemiluminescence (ECL) reagent (Renaissance, NEN)."}}, "note": "Entries after “also recorded” stand apart in the source; their conditions may differ.", "data": [{"compound": "CCC(C)(C)C(=O)C(=O)N1CCC[C@H]1c1nnc([C@@H]2CCCN2C(=O)C(=O)C(C)(C)CC)o1", "note": "[GM-284]", "values": [{"measurement": "competition for binding of 3H-FK506 to immobilized FKBP52", "setting": "[1]", "result": "bind to FKBP52 with similar affinities; also recorded: each ligand is able to compete for binding to the receptor; also recorded: competes with FK506 for binding to full-length FKBP52"}, {"measurement": "neurite outgrowth from DRG explants", "setting": "[2]", "result": "as active as NGF in inducing neuritogenesis; also recorded: indistinguishable from NGF-treated sister explants; also recorded: comparable outgrowth in the NGF and GM-284 treated cultures"}, {"measurement": "Erk phosphorylation in DRG", "setting": "[3]", "result": "no activity on Erk phosphorylation; also recorded: fails to activate the ERK pathway"}]}]}
